Assay results reported in patent US5891848A, “Peptide fragments” (Nippon Zoki Pharmaceutical Co., Ltd., priority 1995, dated 1999).
No end group written: not given here.

Tests used:
[1] = system: senility-accelerated mice (SAM-P/8 strain); assay: Passive avoidance learning test; type: in vivo, mouse; conditions: SAM-P/8, sixth month after birth; s.c. once a week from third week after birth; group 1 150 μg/kg/day, group 2 80 μg/kg/day; test trial 24 hours after acquisition trial; compared to control (SAM-P/8); FIG. 1
Method: In a passive avoidance learning test, remembering ability of senility-accelerated mice of the SAM-P/8 strain decreases from the third month from birth. The effect of the peptide of the present invention for improving said learning disability was investigated. Thus, a mouse was placed in front of a dark box and its ability to remember what it learned was measured using the time it took to come into the box as an index. Electric current was turned on in the dark box after the mouse came into the box so that an electric shock was applied. […] The test trial was conducted 24 hours after the acquisition trial.
The peptide of the present invention was subcutaneously injected once a week since the third week after birth and its effect of improving the passive avoiding ability which was lowered in SAM-P/8 was investigated.

[2] = system: senility-accelerated mice (SAM-P/8 strain); assay: Water maze task (Morris' water maze task); type: in vivo, mouse
From the text: A platform was placed at 1 cm under the water surface in a circular swimming pool for the experiment and then fine Styrofoam beads were uniformly sprinkled onto the water surface so that a mouse was unable to recognize the platform. Any hint to the mouse in the space around the device (such as persons in charge of the experiment, table, fluorescent light and machines for the experiment) was always kept constant during the experimental period. Four starting points were randomly selected, a mouse was placed into the water, turning its head to the wall of the pool, and its diving time until it escaped to the platform was measured. When the mouse climbed up to the platform, it was left as it was for 15 seconds. […] The case from one starting point was defined as one trial and four trials were done every ten minutes and defined as one block. Four blocks were carried out in total every other day. Senility-accelerated mice (SAM-P/8) which were not administered any compounds of the present invention were used as a control. […] After the above-menfioned four blocks were conducted, the platform was removed, the mouse was permitted to swim for a certain period, and the time for swimming in each of the four areas was measured. […] Therefore, the learning and remembering abilities could be determined measuring the staying time in each of the four areas.

[3] = system: neuronal death in the CA1 subfields of the hippocampus; assay: Protective effect on cerebral neurons after ischemic insult (common carotid artery occlusion); type: in vivo, Wister-strain rat; conditions: continuous intracerebroventricular infusion 850 μg/ml; carotid occlusion 15 minutes; histology five days after ischemia; 4 rats/group
Method: Additionally, the effects of the peptides of the present invention on neuronal death in the CA1 subfields of the hippocampus were tested as follows:
The peptide fragment of the present invention, the 1-29 amino acid residue peptide fragment of bovine aFGF in which Cys, an amino acid at the 16-position, was substituted with Ala or the 1-29 amino acid residue peptide fragment of bovine aFGF in which Cys, an amino acid at the 16-position, was substituted with Ser, was administered by continuous intracerebroventricular infusion (850 μg/ml. respectively) into the lateral cerebral ventricles of Wister-strain rat (250-300 g. 4 rats/a group) and their common carotid arteries were occluded for 15 minutes to induce ischemic insult. Five days after ischemia, the rats were deeply anesthetized with sodium pentobarbital and transcardially perfused. Then, the brains were frozen and cut coronally in 20 μm sections by microtomy, and stained by Nissl bodies. The sections were examined by histological analysis. As a result of the analyses, the protecting effect of the peptide of the present invention on neuronal death in the CA1 subfields of the hippocampus was observed (Ala-substituted peptide; 3/4 rats, Ser-substituted peptide; 4/4 rats).

FNLPLGNYKKPKLLYASNGGTFLRILPDG
latency (seconds): time until the mouse came into the dark box in the test trial [1]: unexpectedly higher | diving time (latency) until escape to the platform, Block 1 to Block 4 ([2]; SAM-P/8, ninth month from birth, dosing as in passive avoidance test, compared to the decrease for control (SAM-P/8), FIG. 2): unexpectedly decreased | staying time in area 3, where the platform was located ([2]; SAM-P/8, platform removed after four blocks, compared to control (SAM-P/8), t-test p<0.001, FIG. 3): unexpectedly higher | protecting effect on neuronal death in the CA1 subfields of the hippocampus observed [3]: 3/4
